This is an account of results in EP2873675A1, “Peptide-based peroxidase inhibitors and methods of using same” (The Medical College of Wisconsin, Inc., priority 2013, dated 2015).

Entries after “also recorded” stand apart in the source; their conditions may differ. Residues, ends and D or L forms follow the SMILES beside them.

Series [1] has as its system MPO. Put plainly: MPO-mediated LDL malondialdehyde (MDA) formation. As to conditions: increasing concentrations; LDL 0.5 mg/mL, MPO 50 nM, H2O2 50 µM, NO2 50 µM. In kind it is biochemical. The method, then: MPO-mediated LDL Malondialdehyde (MDA) Formation: Reaction mixtures contained LDL (0.5 mg/mL), NaNO2 (50 µM), H2O2 (50 µM), MPO (50 nM) and increasing concentrations of KYC in a phosphate buffer (100 mM, pH 7.4) containing DTPA (100 µM). After incubation at 37 °C for 4 h, the reactions were stopped by addition of catalase (2,000 units/mL). The formation of MDA was determined according to a published procedure. Briefly, incubation mixtures (containing 25 mM BHT) were adjusted to pH 1.5 and incubated at 60 °C for 80 min to hydrolyze the Schiff Bases formed from MDA and protein. The samples were mixed with 3-fold volume of N-methyl-2-phenylindole (13.4 mM in acetonitrile/methanol (3:1)). After centrifugation (13000 g, 5 min) 330 µL of the supernatants were mixed with 57.5 µL of concentrated HCl and incubated at 45 °C for another 60 min. Finally, after centrifugation (13000 g, 5 min), total MDA in the samples was determined from the absorbance at 586 nm using a UV-Vis spectrophotometer (Agilent Model 8453).

Series [2] relates to NADPH oxidase (NOX). Put plainly: PMA-stimulated HL-60 cell superoxide formation (SOD-inhibitable cytochrome C reduction). The series is classed as cell-based, human. As to conditions: cytochrome C assay. As for the experimental part: PMA-induced Superoxide Anion Formation. HL-60 cells were cultured in RPMI 1640 medium containing 10 % FCS (passage 20-50). HL-60 cells were harvested by centrifugation (1000 rpm, 10 min), washed 2X with phosphate buffer (10 mM, pH 7.4) with NaCl (138 mM), KCl (2.67 mM), CaCl2 (0.901 mM), MgCl2 (0.493 mM) and glucose (1mg/ml) to remove culture medium. The HL-60 cells (6 x10^6/0.5ml) were re-suspended in DPBS. After stimulation with PMA (10 µM), the HL-60 cells were incubated with cytochrome C (40 µM) with or without superoxide dismutase at 37°C for 30 min. The reaction was stopped by centrifugation. Cytochrome C reduction was measured at 550 nm on a UV-Vis spectrophotometer (Agilent, Model 8453).
PMA-stimulated HL-60 cell O2^•- Formation: HL-60 cells were harvested by centrifugation (1000 rpm, 10 min), washed twice with DPBS with glucose to remove culture medium. The HL-60 cells (1.2 x10^7/ml) were re-suspended in DPBS with glucose. After stimulation with PMA (10 µM), the HL-60 cells were incubated with cytochrome C (40 µM) with or without superoxide dismutase (500 units/mL) at 37 °C for 10 min and then the HL-60 cells were removed by centrifugation. Cytochrome C reduction in supernatants was measured at 550 nm using a UV-Vis spectrophotometer (Agilent, Model 8453).

Series [3] has as its system facialis arteries from non-treated SCD mice. Put plainly: Vasodilatation of facialis arteries from untreated SCD mice, treated ex vivo in the vessel bath. As to conditions: 1.5 µg/ml added to vessel bath, 20 min. The method, then:
For vessels treated with KYC (ex-vivo): Using untreated SCD mice, the vessels were isolated/ cannulated the same as for the mice treated with KYC in vivo. After the control dose-response curve using acetylcholine (ACh, 10^-7 - 10^-4 M) and subsequent washing, the vessels were incubated with KYC 1.5 µg/ml for 20 minutes, pre-constricted, and exposed to acetylcholine (ACh, 10^-7 - 10^-4 M). Vasodilation to papaverine (2.0X10^-4 M) was determined after all treatments to ensure smooth muscle viability. Vasodilation was calculated as a percent of maximal vessel diameter change.

Series [4] concerns SCD mice. Nature of the series: Vessel wall thickness of facialis arteries from SCD mice. The series is classed as in vivo. Conditions: 0.3 mg/kg/d, 3 weeks; after papaverine; P=0.10. As for the experimental part:
Vessel Wall Thickness. After completing the vasodilatation studies, the pressurized vessels were maximally dilated by addition of papaverine (10^-4 mol/L, 4 min), and outside and inside diameters recorded. An index of wall thickness was calculated using the following formula; ([outside diameter/inside diameter]/2)/outside diameter, as previously described.

For series [5], the system named is lung cancer mice. Nature of the series: BHT-treated lung cancer mice (BALF activities, tumor number). The series is classed as in vivo. As to conditions: BHT 300 mg/kg single dose; 0.3 mg/kg/d; after 3 days. The method, then: Inhibiting MPO decreases PMN degranulation in lung cancer mice. PMNs are considered to play a causal role in initiating tumor formation. Effects of KYC on PMN recruitment and tumor formation in lung cancer mice were determined. Briefly, mice were treated with BHT (single dose: 300 mg/kg) and KYC (0.3 mg/kg/d).

Series [6] in a line: Solubility in water / physiological buffers. The series is classed as physicochemical. As to conditions: can be added directly to physiological buffers.
In series [7] the test system is MPO. Nature of the series: MPO-mediated LDL oxidation (conjugated diene formation, absorbance at 234 nm). As to conditions: 25 µM; in the absence of nitrite. The series is classed as biochemical.

`CC(=O)N[C@@H](CCCCN)C(=O)N[C@@H](Cc1ccc(O)cc1)C(=O)N[C@@H](CS)C(N)=O` [KYC, N-acetyl Lysyltyrosylcysteine amide] (Ac-Lys-Tyr-Cys-NH2): the “MPO-mediated MDA formation in LDL” value in series [1] is on record as “dose-dependently inhibited”. For the same molecule, the “O2•- production in PMA-stimulated HL-60 cells” value in series [2] is on record as “neither KYC nor KYC disulfide have any significant effect; also recorded: Neither KYC nor KYC disulfide had any significant effect”. The “vasodilatation in response to ACh” value in series [3] is “did not increase vasodilatation”. Moreover, in series [4], the vessel wall thickness entry is listed as “reduces vessel wall thickness”. In series [5], the “MPO activity in BALF” value is given as “significantly decreased”, the “PMN number in BALF” value was “did not reduce” and the “elastase activity in BALF” value is given as “significantly decreased”. Moreover, in series [6], the solubility in water result is given as “highly water soluble”. In series [7], the “MPO/H2O2-mediated LDL oxidation” value was “inhibited LDL oxidation; also recorded: did not increase LDL oxidation”.
